According to the METLIN SMRT retention time set (Domingo-Almenara et al. 2019):

Assay: gradient 5% acetonitrile 3 min, to 50% in 2 min, to 85% in 15 min, held 3 min, 100 µL/min
Settings: column: Zorbax Extend-C18 2.1 x 50 mm; eluents: water / acetonitrile, 0.1% formic acid
Summary of the method: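 Over 3 months, pure standards in mixtures of ~100 molecules were run by HPLC coupled to a quadrupole time-of-flight mass spectrometer in positive and negative ionization mode. The column was a Zorbax Extend-C18 (2.1 × 50 mm, 1.8 μm) at 100 μL/min, eluted with water and acetonitrile each holding 0.1% formic acid, with 40 μL dead and 900 μL dwell volumes. Retention time was determined from adduct peaks chosen by software and checked manually.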

Point of comparison: COCCCNC(=O)N1CCCN(c2nc3cc(F)ccc3n3cccc23)CC1, RP-LC retention time 613 s. Against it:
- CCC(=O)N1CCc2cc(N3CC(C(=O)NCC4CC4)CC3=O)ccc21 (stereo not given) — higher, 652 s
- O=c1c2cnc3nc(-c4ccccc4)nn3c2ccn1CCc1c[nH]c2ccc(F)cc12 — higher, 941 s
- CC1=CN2C(c3cccc([N+](=O)[O-])c3)=NON(c3ccc(C)cn3)C2C=C1 (stereo not given) — higher, 1190 s
- O=C(Nc1ccc(F)cc1)C1(c2cccs2)CCOCC1 — higher, 798 s
- O=C(Cn1nc2c3ccccc3ncn2c1=O)Nc1ccc(Cl)cc1 — higher, 727 s
- CC12CC(c3ccccc3O1)C(C(=O)N1CCCCC1)C(=O)N2 (stereo not given) — higher, 726 s
- Cc1ccc(CNC(=O)N2CCC(c3cc(N)on3)CC2)cc1 — higher, 692 s
- O=C(CN1C(=O)NC2(CCCCC2)C1=O)Nc1ccc2c(c1)OCO2 — higher, 709 s
- CC1(C(=O)NCc2ccc(F)cc2)CN(S(=O)(=O)c2ccccc2)CC(=O)N1C1CCCCC1 (stereo not given) — higher, 1020 s
- CCc1ccc(-c2cn3cc(C(=O)NCCN4CCN(C)CC4)ccc3n2)cc1 — lower, 573 s
- CC1CCN(S(=O)(=O)c2ccc3nn(Cc4cccc(Cl)c4)c(=O)n3c2)CC1 — higher, 1070 s
- Cc1nnc(-c2ccc(S(=O)(=O)NCc3ccco3)o2)o1 — higher, 722 s
- O=C1CCCc2c1cc(C(=O)NCc1ccccn1)c(=O)n2-c1ccc(C(F)(F)F)cc1 — higher, 678 s
- C=CC(=O)Nc1cccc(Oc2nc(Nc3ccc(N4CCN(C)CC4)cc3)ncc2Cl)c1 — higher, 695 s
- COc1ccc(N2C(=O)CCC(C(=O)NC3CCCCCC3)C2c2ccc(F)cc2)cc1 (stereo not given) — higher, 839 s
- CCCS(=O)(=O)Nc1ccc(F)c(C(=O)c2c[nH]c3ncc(Cl)cc23)c1F — higher, 878 s
- CC1=C(c2ccc(C)cc2)S(=O)(=O)N=C1N1CCCN(C(=O)c2ccc(F)cc2)CC1 — higher, 859 s
- CSc1cccc(NC(=O)N2CCc3nc(CNC(=O)C4CCC4)n(C)c3C2)c1 — higher, 632 s
- COC(=O)N1CCc2ccc(F)cc2C1C(=O)Nc1cccc2nsnc12 (stereo not given) — higher, 754 s
- CCN(CC)C(=O)c1ccc(-c2nnc3ccc(NC(=O)C4CCC4)cn23)cc1 — higher, 745 s
- CCN(CC)C(=O)c1ccc2c(c1)N(CC(=O)N1CCCCC1)C(=O)CO2 — higher, 691 s
- COCCn1nnnc1C1CC2(CCOCC2)C(=O)N1CCc1ccc(OC)c(OC)c1 (stereo not given) — higher, 685 s
- Cc1ccc(N2CCN(c3nc(C(=O)O)cs3)CC2)cc1 — higher, 770 s
- CC(C)c1noc(-c2ccc(-n3cnc(C(=O)N4CCSCC4)c3)nc2)n1 — higher, 863 s
- Cc1[nH]c(=O)[nH]c(=O)c1S(=O)(=O)NC(C)C — lower, 581 s
- CN1C(=O)c2[nH]nc(-c3ccc(F)cc3)c2C1c1cccc(O)c1 (stereo not given) — higher, 687 s
- Cc1ccc(C(=O)Nc2ccc(-c3nc(Cn4cccn4)c(C)o3)cc2)s1 — higher, 890 s
- CCCCn1c(CN2CCOCC2)nc2cc(NC(=O)CC(C)C)ccc21 — higher, 665 s
- COc1ccc(OC)c(NC(=O)N2CCN(c3cc(-c4ccccc4)ncn3)CC2)c1 — higher, 667 s
- CCc1nn(C)c(=O)c2cc(S(=O)(=O)NCc3ccc(Cl)cc3)cn12 — higher, 911 s
- CC(=O)Nc1ccc(C2(C(=O)NCc3ccc(Cl)cc3)CCC2)cc1 — higher, 785 s
- COc1ccccc1-c1ccc(N2CCN(C(=O)NC3CCCCC3)CC2)nn1 — lower, 601 s
- CCOc1ccccc1C(=O)Nc1ccc2c(c1)N(CCOC)CCC2 — higher, 1060 s
- CCCCN1C(=O)CC(C(=O)OCC)=C1C — higher, 892 s
- O=C(c1ccc(Cl)cc1Cl)N1CCN(c2cc(-c3ccccc3)[nH]n2)CC1 — higher, 936 s
- Cc1c(C2CCN(C(=O)c3ccco3)CC2)noc1N — higher, 620 s
- CC(C)CCNC(=O)C1CCN(c2cnn(Cc3ccccc3)c(=O)c2)CC1 — higher, 790 s
- COc1ccccc1NC(=O)c1ccc(CSc2ncccn2)cc1 — lower, 603 s
- Cc1ccc(C(C)NC(=O)c2cn3c(n2)COCC3)c(C)c1 (stereo not given) — higher, 667 s
- Fc1ccc(-c2ccc(CNCCCn3ccnc3)o2)cc1Cl — lower, 585 s
- Cc1ccc2c(c1)N(S(C)(=O)=O)CCC(C(=O)Nc1ccc(C(C)C)cc1)O2 (stereo not given) — higher, 1130 s
- CCCS(=O)(=O)N1CCCc2ccc(NC(=O)NC3CCCCC3)cc21 — higher, 882 s
- CC(C)CNC(=O)CN1C(=O)C2CCCCN2c2ccc(S(=O)(=O)N(C)C)cc21 (stereo not given) — higher, 698 s
- O=C(C1CCN(c2cncnc2N2CCCC2)CC1)N1CCN(c2ccccn2)CC1 — lower, 552 s
